According to US6288261A, “Inhibitors of matrix metalloproteinases” (Abbott Laboratories, priority 1999, dated 2001):

Target: T1, recombinant truncated stromelysin (human sequence) (Homo sapiens, UniProt P08254)
T1 construct: made in house; host or cells: E. coli
Assay: Determination of Stromelysin Inhibition
Assay type: biochemical
Settings: recombinant truncated human stromelysin produced in E. coli
Protocol: Determination of Stromelysin Inhibition
The efficacy of the compounds of this invention as matrix metalloproteinase inhibitors was determined by measuring the inhibition of stromelysin. The inhibition of stromelysin by the compounds of this invention was determined as follows: recombinant truncated stromelysin (human sequence) produced in E. coli was prepared by expression and purification of the protein as described by Ye et al, Biochemistry, 1992, 31, 11231-11235. The IC50 values were determined as described in Steiman et al, Bioorganic and Medicinal Chemistry Letters, (1998), 8, 2087-2092 (footnote 13).

T1 sequence (P08254 100-273 limits assumed): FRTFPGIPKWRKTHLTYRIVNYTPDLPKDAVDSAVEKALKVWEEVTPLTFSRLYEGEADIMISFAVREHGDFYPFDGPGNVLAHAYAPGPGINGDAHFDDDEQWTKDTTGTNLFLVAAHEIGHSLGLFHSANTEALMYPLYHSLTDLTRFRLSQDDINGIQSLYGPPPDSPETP

| SMILES | IC50 [nM] |
| --- | --- |
| O=C(NO)c1c(OCCS(=O)(=O)c2ccc(-c3ccc(Cl)cc3)cc2)ccc2ccccc12 [Example 6, 2-[[2-(4'-chloro[1,1'-biphenyl]-4-yl)sulfonyl]ethoxy]-N-hydroxy-1-naphthalenecarboxamide] | 670 |
| O=C(NO)c1c(CCS(=O)(=O)c2ccc(-c3ccc(Cl)cc3)cc2)ccc2ccccc12 [Example 8, 2-[2-[(4'-chloro[1,1'-biphenyl]-4-yl)sulfonyl]ethyl]-N-hydroxy-1-naphthalenecarboxamide] | 3700 |
| O=C(NO)c1c(CNS(=O)(=O)c2ccc(-c3ccc(OC(F)(F)F)cc3)cc2)ccc2ccccc12 [Example 9] | 690 |
| COc1ccc(-c2ccc(C(=O)CCCc3ccc4ccccc4c3C(=O)NO)cc2)cc1 [Example 11, N-hydroxy-2-[4-(4'-methoxy[1,1'-biphenyl]-4-yl)-4-oxobutyl]-1-naphthalenecarboxamide] | 1500 |

Compounds with a lower IC50, results first:

| IC50 [nM] | SMILES |
| --- | --- |
| 640 | O=C(NO)c1c(CCOc2ccc(-c3ccc(Cl)cc3)cc2)ccc2ccccc12 [Example 1, 2-[2-[(4'-chloro[1,1'-biphenvyl]-4-vl)oxy]eyl]-N-hydroxy-1-naphthalenecarboxamide] |
| 460 | COc1ccc(-c2ccc(S(=O)(=O)CCOc3ccc4ccccc4c3C(=O)NO)cc2)cc1 [Example 7, N-hydroxy-2-[2-[(4'-methoxy[1,1'-biphenyl]-4-vl)sulfonyl]ethoxy]-1-naphthalenecarboxamide] |
| 400 | COc1ccc(-c2ccc(S(=O)(=O)CCCc3ccc4ccccc4c3C(=O)NO)cc2)cc1 [Example 10, N-hydroxy-2-[3-[(4'-methoxy[1,1'-biphenyl]-4-yl)sulfonyl]propyl]-1-naphthalenecarboxamide] |
| 450 | COc1ccc(-c2ccc(C(=O)CCc3ccc4ccccc4c3C(=O)NO)cc2)cc1 [Example 12, N-hydroxy-2-[3-(4'-methoxy[1,1'-biphenyl]-4-yl)-3-oxopropyl]-1-naphthalenecarboxamide] |
| 62 | N#CCc1cccc(-c2ccc(S(=O)(=O)CCOc3ccc4ccccc4c3C(=O)NO)cc2)c1 [Example 13] |
